The record followed here is patent publication US8618299B2, “Azinone-substituted azapolycycle MCH-1 antagonists, methods of making, and use thereof” (Albany Molecular Research, Inc., priority 2009, dated 2013).

Counter-ions that a name gives are not always drawn.

In one series the target is human MCH-1 receptor (Homo sapiens (Human), UniProt Q99705). The experiment in a line: Binding assay for human melanin-concentrating hormone (MCH1) receptor. As to conditions: membranes from CHO-K1 cells expressing human MCH1 receptor; 1.4 nM [3H]-labeled radioligand, 60 min at 25° C., pH 7.4; Ki from Cheng Prusoff equation. On the procedure: Binding Assay for Human Melanin-Concentrating Hormone (MCH1) Receptor
human MCH-1 receptor, sequence (Q99705 whole entry): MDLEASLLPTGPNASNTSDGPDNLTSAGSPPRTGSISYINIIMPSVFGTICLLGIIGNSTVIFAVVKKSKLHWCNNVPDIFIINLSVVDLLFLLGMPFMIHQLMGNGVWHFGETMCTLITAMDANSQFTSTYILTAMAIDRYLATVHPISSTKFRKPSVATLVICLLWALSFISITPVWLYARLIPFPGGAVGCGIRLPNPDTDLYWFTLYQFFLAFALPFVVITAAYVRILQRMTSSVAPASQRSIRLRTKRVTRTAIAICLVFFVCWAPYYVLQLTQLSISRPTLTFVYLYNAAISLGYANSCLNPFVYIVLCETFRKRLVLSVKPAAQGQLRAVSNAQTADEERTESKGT
Evaluation of the affinity of compounds for the human MCH-1 receptor was accomplished using 4-(3,4,5-tritritiumbenzyloxy)-1-(1-(2-(pyrrolidin-1-yl)ethyl)-1H-indazol-5-yl)pyridin-2(1H)-one and membranes prepared from stable CHO-K1 cells expressing the human MCH1 receptor obtained from Euroscreen (Batch 1138). Cell membrane homogenates (8.92 μg protein) were incubated for 60 min at 25° C. with 1.4 nM of the [^3H]-labeled compound in the absence or presence of the test compound in 50 mM Tris-HCl buffer, pH 7.4. Nonspecific binding was determined in the presence of 50 μM 1-(5-(4-cyanophenyl)bicyclo[3.1.0]hexan-2-yl)-3-(4-fluoro-3-(trifluoromethyl)phenyl)-1-(3-(4-methylpiperazin-1-yl)propyl)urea. Following incubation, the samples were filtered rapidly under vacuum through Skatron 11731 filters, pre-soaked in 0.5% polyethylenimine, and washed with ice-cold 50 mM Tris-HCl buffer, pH 7.4, (wash setting 9,9,0) using a Skatron cell harvester. The filters were counted for radioactivity in a liquid scintillation counter (Tri-Carb 2100TR, Packard) using a scintillation cocktail (Ultima Gold MV, Perkin Elmer).
The results are expressed as a percent inhibition of the control radioligand specific binding. The IC50 value (concentration causing a half-maximal inhibition of control specific binding) and Hill coefficient (nH) were determined by non-linear regression analysis of the competition curve using Hill equation curve fitting. The inhibition constant (Ki) was calculated from the Cheng Prusoff equation: (Ki=IC50/(1+(L/KD)), where L=concentration of radioligand in the assay, and KD=affinity of the radioligand for the receptor.
Consider `Cc1ccc(-c2ccn(-c3ccc4c5c(n(C)c4c3)CC3CCCCN3C5)c(=O)c2)cn1` (stereo not drawn) [Example 35, 1-(5-Methyl-5,6,6a,7,8,9,10,12-octahydroindolo[2,3-b]quinolizin-3-yl)-4-(6-methylpyridin-3-yl)pyridin-2(1H)-one Dihydrochloride], for which the affinity, expressed as Ki, was 0.193 µM. The molecule `O=c1cc(OCc2ccccc2)ccn1-c1ccc2c3c([nH]c2c1)CCN1CCCC31` (stereo not drawn) [Example 24, 4-(Benzyloxy)-1-(2,3,5,6,7,11c-hexahydro-1H-indolizino[7,8-b]indol-9-yl)pyridin-2(1H)-one Hydrochloride] yielded a Ki of 0.006 µM. As for `O=c1cc(OCc2ccc(F)cn2)ccn1-c1ccc2c3c([nH]c2c1)CCN1CCCC31` (stereo not drawn) [Example 25, 4-((5-Fluoropyridin-2-yl)methoxy)-1-(2,3,5,6,7,11c-hexahydro-1H-indolizino[7,8-b]indol-9-yl)pyridin-2(1H)-one Hydrochloride], the Ki came out at 0.014 µM. The same measure, in the same setting: next, `Cc1ccc(-c2ccn(-c3ccc4c5c(n(C)c4c3)CC3CCCN3C5)c(=O)c2)cn1` (stereo not drawn) [Example 13, 1-(10-Methyl-2,3,5,10,11,11a-hexahydro-1H-indolizino[7,6-b]indol-8-yl)-4-(6-methylpyridin-3-yl)pyridin-2(1H)-one Hydrochloride]: 0.059 µM; `Cc1ccc(COc2ccn(-c3ccc4c5c(n(C)c4c3)CCN3CCCC53)c(=O)c2)cn1` (stereo not drawn) [Example 20, 1-(7-Methyl-2,3,5,6,7,11c-hexahydro-1H-indolizino[7,8-b]indol-9-yl)-4-((6-methylpyridin-3-yl)methoxy)pyridin-2(1H)-one Dihydrochloride]: 0.013 µM; `Cn1c2c(c3ccc(-n4ccc(OCc5ccc(F)cn5)cc4=O)cc31)C1CCCCN1CC2` (stereo not drawn) [Example 21, 4-((5-Fluoropyridin-2-yl)methoxy)-1-(8-methyl-1,2,3,4,6,7,8,12c-octahydroindolo[3,2-a]quinolizin-10-yl)pyridin-2(1H)-one Hydrochloride]: 0.0084 µM.

In turn, `Cc1ccc(-c2ccn(-c3ccc4c5c(n(C)c4c3)CCN3CCCC53)c(=O)c2)cn1` (stereo not drawn) [Example 15, 1-(7-Methyl-2,3,5,6,7,11c-hexahydro-1H-indolizino[7,8-b]indol-9-yl)-4-(6-methylpyridin-3-yl)pyridin-2(1H)-one Hydrochloride] showed a Ki of 0.076 µM. The same measure, in the same setting: next, `Cn1c2c(c3ccc(-n4ccc(OCc5ccc(F)cn5)cc4=O)cc31)C1CCCN1CC2` (stereo not drawn) [Example 19, 4-((5-Fluoropyridin-2-yl)methoxy)-1-(7-methyl-2,3,5,6,7,11c-hexahydro-1H-indolizino[7,8-b]indol-9-yl)pyridin-2(1H)-one Dihydrochloride]: 0.011 µM. Consider `Cc1ccc(COc2ccn(-c3ccc4c5c(n(C)c4c3)CC3CCCN3C5)c(=O)c2)cn1` (stereo not drawn) [Example 31, 1-(10-Methyl-2,3,5,10,11,11a-hexahydro-1H-indolizino[7,6-b]indol-8-yl)-4-((6-methylpyridin-3-yl)methoxy)pyridin-2(1H)-one Hydrochloride], for which the Ki worked out at 0.022 µM. Compared with the last molecule, the Ki is about 2-fold higher.

Consider `Cn1c2c(c3ccc(-n4ccc(OCc5ccc(F)cn5)cc4=O)nc31)C1CCCN1CC2` (stereo not drawn) [Example 45, 4-((5-Fluoropyridin-2-yl)methoxy)-1-(7-methyl-2,3,5,6,7,11c-hexahydro-1H-pyrido[3′,2′:4,5]pyrrolo[2,3-g]indolizin-9-yl)pyridin-2(1H)-one Hydrochloride], for which the Ki is 0.021 µM. Still for that read-out and setting: to `Cn1c2c(c3ccc(-n4ccc(OCc5ccccc5)cc4=O)cc31)CCN1CCCCCC21` (stereo not drawn) [Example 10, 4-(Benzyloxy)-1-(13-methyl-2,3,4,5,7,8,13,13b-octahydro-1H-pyrido[1,2-a]azepino[10,9-b]indol-10-yl)pyridin-2(1H)-one Hydrochloride] belongs 0.047 µM; to `Cc1ccc(COc2ccn(-c3ccc4c5c(n(C)c4c3)CC3CCCCN3C5)c(=O)c2)cn1` (stereo not drawn) [Example 33, 1-(5-Methyl-5,6,6a,7,8,9,10,12-octahydroindolo[2,3-b]quinolizin-3-yl)-4-((6-methylpyridin-3-yl)methoxy)pyridin-2(1H)-one Dihydrochloride], 0.031 µM. `O=c1cc(OCc2ccc(Cl)cc2F)ccn1-c1ccc2c3c([nH]c2c1)CC1CCCN1C3` (stereo not drawn) [Example 42, 4-(4-Chloro-2-fluorobenzyloxy)-1-(2,3,5,10,11,11a-hexahydro-1H-indolizino[7,6-b]indol-8-yl)pyridin-2(1H)-one Hydrochloride] showed a Ki of 0.019 µM. In the case of `Cn1c2c(c3ccc(-n4ccc(OCc5ccc(F)cn5)cc4=O)cc31)CCN1CCCC21` (stereo not drawn) [Example 43, 4-((5-Fluoropyridin-2-yl)methoxy)-1-(11-methyl-2,3,5,6,11,11b-hexahydro-1H-indolizino[8,7-b]indol-9-yl)pyridin-2(1H)-one Dihydrochloride], the Ki came to 0.026 µM. Regarding `Cc1ccc(COc2ccn(-c3ccc4c5c(n(C)c4c3)CCN3CCCCC53)c(=O)c2)cn1` (stereo not drawn) [Example 23, 1-(8-Methyl-1,2,3,4,6,7,8,12c-octahydroindolo[3,2-a]quinolizin-10-yl)-4-((6-methylpyridin-3-yl)methoxy)pyridin-2(1H)-one Dihydrochloride], the Ki was found to be 0.019 µM. Same read-out and setting: to `O=c1cc(OCc2ccc(F)cn2)ccn1-c1ccc2c3c([nH]c2c1)CC1CCCN1C3` (stereo not drawn) [Example 40, 4-((5-Fluoropyridin-2-yl)methoxy)-1-(2,3,5,10,11,11a-hexahydro-1H-indolizino[7,6-b]indol-8-yl)pyridin-2(1H)-one Hydrochloride] belongs 0.014 µM.

Staying with this series, now noted: membranes from CHO-K1 cells expressing human MCH1 receptor; 1.4 nM [3H]-labeled radioligand, 60 min at 25° C., pH 7.4; Ki from Cheng Prusoff equation; Dihydrochloride.
In turn, `Cn1c2c(c3ccc(-n4ccc(OCc5ccc(F)cn5)cc4=O)cc31)CN1CCCCC1C2` (stereo not drawn) [Example 37, 4-((5-Fluoropyridin-2-yl)methoxy)-1-(5-methyl-5,6,6a,7,8,9,10,12-octahydroindolo[2,3-b]quinolizin-3-yl)pyridin-2(1H)-one Dihydrochloride] showed an inhibitory constant (Ki) of 0.01 µM.

Test system in the next series: not given
Experiment: not given
Conditions: not given
`Cc1ccc(-c2ccn(-c3ccc4c5c(n(C)c4c3)CC3CCCCN3C5)c(=O)c2)cn1` (stereo not drawn) (as salt: hydrochloride) [Example 35, 1-(5-Methyl-5,6,6a,7,8,9,10,12-octahydroindolo[2,3-b]quinolizin-3-yl)-4-(6-methylpyridin-3-yl)pyridin-2(1H)-one Dihydrochloride]: the melting point was in the range of 256 to 260 °C. Still for that read-out and setting: to `Cn1c2c(c3ccc(-n4ccc(OCc5ccc(F)cn5)cc4=O)cc31)CN1CCCC1C2` (stereo not drawn) (as salt: hydrochloride) [Example 12, 4-((5-Fluoropyridin-2-yl)methoxy)-1-(10-methyl-2,3,5,10,11,11a-hexahydro-1H-indolizino[7,6-b]indol-8-yl)pyridin-2(1H)-one Hydrochloride] belongs 290 to 293 °C; to `Cn1c2c(c3ccc(-n4ccc(OCc5ccc(F)cn5)cc4=O)cc31)C1CCCCN1CC2` (stereo not drawn) (as salt: hydrochloride) [Example 21, 4-((5-Fluoropyridin-2-yl)methoxy)-1-(8-methyl-1,2,3,4,6,7,8,12c-octahydroindolo[3,2-a]quinolizin-10-yl)pyridin-2(1H)-one Hydrochloride], 256 to 258 °C. Regarding `Cc1ccc(COc2ccn(-c3ccc4c5c(n(C)c4c3)CC3CCCN3C5)c(=O)c2)cn1` (stereo not drawn) (as salt: hydrochloride) [Example 31, 1-(10-Methyl-2,3,5,10,11,11a-hexahydro-1H-indolizino[7,6-b]indol-8-yl)-4-((6-methylpyridin-3-yl)methoxy)pyridin-2(1H)-one Hydrochloride], the melting point was 260 to 263 °C. The same measure, in the same setting: to `Cc1ccc(COc2ccn(-c3ccc4c5c(n(C)c4c3)CCN3CCCC53)c(=O)c2)cn1` (stereo not drawn) (as salt: hydrochloride) [Example 20, 1-(7-Methyl-2,3,5,6,7,11c-hexahydro-1H-indolizino[7,8-b]indol-9-yl)-4-((6-methylpyridin-3-yl)methoxy)pyridin-2(1H)-one Dihydrochloride] belongs 280 to 282 °C; to `Cc1ccc(COc2ccn(-c3ccc4c5c(n(C)c4c3)CCN3CCCCC53)c(=O)c2)cn1` (stereo not drawn) (as salt: hydrochloride) [Example 23, 1-(8-Methyl-1,2,3,4,6,7,8,12c-octahydroindolo[3,2-a]quinolizin-10-yl)-4-((6-methylpyridin-3-yl)methoxy)pyridin-2(1H)-one Dihydrochloride], 210 to 214 °C. For the molecule `Cc1ccc(-c2ccn(-c3ccc4c5c(n(C)c4c3)CC3CCCN3C5)c(=O)c2)cn1` (stereo not drawn) (as salt: hydrochloride) [Example 13, 1-(10-Methyl-2,3,5,10,11,11a-hexahydro-1H-indolizino[7,6-b]indol-8-yl)-4-(6-methylpyridin-3-yl)pyridin-2(1H)-one Hydrochloride], the melting point is 305 °C (dec.).

As usually defined, the Ki is the dissociation constant of the complex between target and ligand, obtained from inhibition or displacement. A higher Ki goes with a looser hold on the target. The term melting point denotes the temperature, or range, at which the solid turns liquid.
